Patent US9464093B2, “Substituted imidazo[4',5':4,5]cyclopenta[1,2-e]pyrrolo[1,2-a]pyrazines and oxazolo[4',5':4,5]cyclopenta[1,2-e]pyrrolo[1,2-a]pyrazines for treating brain cancer” (Mayo Foundation for Medical Education and Research, priority 2012, dated 2016)
Entries after “also recorded” stand apart in the source; their conditions may differ. Read-outs that look alike come from different tables or passages of the source.

Legend:
[1] = system: MB-468; assay: Cell proliferation assay MB-468 (Example 6); type: cell-based; settings: cells counted on the sixth day
Procedure: In-vitro assays were performed to assess the cytotoxic impact of AA analogues on breast cancer cell lines (MB-468, MB-453, and T47D), lymphoma cell lines (Raji and OCI-LY10), and glioblastoma multiforme cell line (U87). The three breast cancer cell lines represent three subtypes of breast cancer: triple-negative (MB-468), Her2-positive (MB-453), and hormone receptor positive (T47D).
The IC50 values obtained for each compound represents the concentration of the tested compound that is needed to decrease the cancer cell count by 50%. Cancer cells were seeded in triplicate at 50,000 cells per well of a 24-well plate in 0.5 ml medium. […] Cells were harvested and counted on the sixth day using a Beckman Coulter counter.

[2] = system: U87 cells; assay: U87 orthotopic murine model for glioblastoma multiforme; type: in vivo; settings: for Median Survival (Day) GBM (U-87): control 25.5; for survival (Kaplan-Meier) vs control, U87 model / tumor growth (BLI) vs control, U87 model: all treatment groups (2.5 or 5 mg/kg i.p. daily for 4 days); for tolerability, U87 model: both dose levels (2.5 and 5 mg/kg)
Procedure: Female athymic mice (8-10 weeks old and weighing 20-25 g at the beginning of the study) were purchased from Harlan laboratories (Indianapolis, Ind.). They were housed in a temperature-controlled sterilized room (23±2° C.) with a 12-h light/dark cycle and free access to food and water throughout the study.
Murine brain tumor models were created by intracerebral injection of luciferase-transfected cancer cells in athymic mice under anesthesia using a stereotactic platform. For murine model for CNS lymphoma, 1×10^5 OCI-LY10 B lymphoma cells were used. For murine model for metastatic breast cancer of the brain (MBCB), 1×10^5 MB-468 triple-negative breast cancer cells were used. For murine model for glioblastoma multiforme (GBM), 1.75×10^5 U87 cells were used. Eight-week-old athymic mice underwent a minimum 7-day acclimation/quarantine prior to surgery. Surgery was performed in a laminar flow hood under sterile conditions. Tylenol 300 mg/kg PO was given for analgesia 48 hours before the surgery and continuing 48 hours postoperatively. Anesthesia was achieved by inhalation of 1-2% isoflurane. After the mouse became well anesthetized, it was placed in the Kopf stereotactic instrument. A small amount of BNP antibiotic cream (a mixture of Bacitracin, Neomycin and Polymyxin) was smeared on its eyes to prevent infection and corneal damage during surgery. A strip of soft fabric was placed over the mouse's body and tail to prevent excessive heat loss during surgery. The scalp area was cleaned with a 2% solution of Betadine and dried with cotton tipped applicator. A midline sagittal incision was made in the scalp. A small burr hole was drilled in the left skull with a surgical drill (Kopf) or a Dremel drill according to the coordinates (AP: 0.5 mm, LM: 2.5 mm) as determined by reference to the mouse brain atlas by Franklin and Paxinos. The dura mater was surgically exposed, and a 10 μl Hamilton syringe with a 26S-gauge beveled needle was lowered into the left cerebral hemisphere up to a depth of 3 mm and 5 μl of tumor cells were slowly infused (0.5 μl/min). The needle was left in place for 5 minutes to prevent reflux and then was slowly removed. The skin was closed with wound clips. The mice recovered from anesthesia and surgery in a warm environment and were not returned to their cages until motor activity returned. Cages were placed on top of a heating pad to minimize the loss of body heat during the recovery. The mice were monitored post-operatively at least twice a day for 5 days or until recovery was complete.
BLI was used to assess the impact of the treatments on the brain tumor growth. After intracerebral injection of cancer cells, all the mice were subjected to bioluminesence imaging (BLI) twice a week starting at day-4 post-intracerebral injection to monitor the real-time in vivo tumor growth. BLI was conducted using a Xenogen Lumina optical imaging system (Caliper Life Sciences, Hopkinton, Mass.). Mice were anesthetized with isofluorane before intraperitoneal injections of luciferin at a dose of 150 mg/kg, providing a saturating substrate concentration for luciferase enzyme. Peak luminescent signals were recorded 10 minutes after luciferin injection. Regions of interest encompassing the intracranial area of signal were defined using Living Image software (Xenogen, Alameda, Calif.), and the total photons/s/steradian/cm2 was recorded.
Five mice each were assigned to one of seven treatment groups or one vehicle control group for all three brain tumor models. Mice in experimental groups received either 2.5 mg/kg or 5 mg/kg of AA, CEAA, or DCEAA by intraperitoneal route daily for 4 days. For CAA, only 2.5 mg/Kg by intraperitoneal route daily for 4 days was used. The control group received DMSO by intraperitoneal route for 4 days. The end point for the survival analysis was the development of limb paralysis. Animals were checked at least twice per day. Animals that reached the end point were sacrificed by CO2 anesthesia. […]

[3] = system: DU145 prostate cancer cells; assay: Cytotoxicity, MTT method, DU145; settings: read-out: Cytotoxicity (IC50, μM) DU145
Procedure: The cell suspension in the culture medium was plated into each well of 96-well plates (10,000 cells/well/100 μL). After 24 h, testing compounds were added, and then the plates were incubated for an additional 24 h in a humidified atmosphere of 5% CO2 at 37° C. […] The IC50 value was determined by linear interpolation from the growth inhibition curve.

[4] = 2.5 mg/kg intraperitoneal daily for 4 days
[5] = 5 mg/kg intraperitoneal daily for 4 days

Row | SMILES | IC50 [1] | Median Survival (Day) GBM (U-87) [2, 4] | weight loss, U87 model ([2]; 5 mg/kg dose level) | Median Survival (Day) GBM (U-87) [2, 5] | survival (Kaplan-Meier) vs control, U87 model [2] | tumor growth (BLI) vs control, U87 model [2] | IC50 ([3]; MTT, 24 h incubation) | weight loss, U87 model ([2]; 2.5 mg/kg) | IC50 ([3]; Homo sapiens, DU-145, 24 h) | tolerability, U87 model [2]
1 | CN1C(=O)N[C@H]2[C@@H]3NC(=O)c4ccc(Br)n4[C@@H]3C[C@]21O [AA, agelastatin A, reference compound] | 2.8 µM | 28 days | Some weight loss | 30 days | significantly prolonged survival; also recorded: prolongation of survival | significantly decreased tumor growth; also recorded: significantly slower | 2.3 µM | – | – | –
2 | CN1C(=O)N[C@H]2[C@@H]3NC(=O)c4ccc(Cl)n4[C@@H]3C[C@]21O [CAA, chloroagelastatin A] | 0.0811 µM | 31 days | – | – | significantly prolonged survival; also recorded: prolongation of survival | significantly decreased tumor growth; also recorded: significantly slower | – | Some weight loss | 1.2 µM | –
3 | CCN1C(=O)N[C@H]2[C@@H]3NC(=O)c4ccc(Cl)n4[C@@H]3C[C@]21O [CEAA, chloroethylagelastatin A] | 0.277 µM | 29 days | – | 31 days | significantly prolonged survival; also recorded: prolongation of survival | significantly decreased tumor growth; also recorded: significantly slower | – | – | 2.6 µM | well tolerated
4 | CCN1C(=O)N[C@H]2[C@@H]3NC(=O)c4cc(Cl)c(Cl)n4[C@@H]3C[C@]21O [DCEAA, dichloroethylagelastatin A] | 0.444 µM | 30 days | – | 34 days | significantly prolonged survival; also recorded: prolongation of survival | significantly decreased tumor growth; also recorded: significantly slower | – | – | 1.4 µM | well tolerated
